Values joined by “and” are separate entries in the source; they are usually repeats but may differ in a detail not shown here. Equal entries are not always repeated. “Also recorded” adds a separate entry of the source. Each block holds one molecule with its values, some of them ahead of it.
Tests used:
Jurkat T cells [1] = assay: Growth inhibition of Jurkat T cells by ADC, 3H-TdR pulse; format: cell-based, human; settings: 80 hours incubation + 16 hour 3H-TdR pulse
Experimental: FIG. 9. […] Cells were exposed to the ADCs continuously for a total of 96 hr. Proliferation was assessed by a pulse of H-TdR during the last 16 hours of incubation.
Five thousand Jurkat T cells in 100 μl of medium were seeded in 96-well TC plates. […] After 80 hours of incubation, cellular DNA synthesis was assessed by a 16 hour ^3H-TdR pulse.

[2] = tested on: activated naïve T lymphocytes (CD45RO-); assay: Proliferation of activated naïve T lymphocytes, 3H-TdR; format: cell-based, human; settings: compared to memory T lymphocytes or T lymphocyte clones
Experimental: As PBMC are made up of different subsets of lymphocytes, the response of one cellular subset toward cAC10 ADCs may easily be masked by other subsets. In order to examine this possibility, total T lymphocytes, naïve and memory T lymphocytes were enriched from PBMC by negative immuno-selection. Briefly, PBMCs were incubated with one of the following antibody cocktails, containing saturating quantities of antibodies, at a final concentration of 20×10^6 cells/ml on ice for 20 minutes. To enrich for total T lymphocytes, the antibody cocktail contained anti-CD 14 (BD PharMingen), anti-CD16 (BD PharMingen), and anti-CD20 (BD PharMingen). To enrich for naïve T lymphocytes (CD45RO^−), the antibody cocktail contained anti-CD14, anti-CD16, anti-CD20, and anti-CD45RO (BD PharMingen). To enrich for memory T lymphocytes (CD45RA^−), the antibody cocktail contained, anti-CD14, anti-CD16, anti-CD20, and anti-CD45RA (BD PharMingen). […]
Activation-induced expression of CD30 on different T cell subsets was then examined. […] After 72 hours of incubation, the expression of CD30 on both CD4 and CDS cells in the different cultures was determined by flow cytometry, also as outlined in Example 6. Expression of CD30 was detected on both CD4 and CDS cells regardless of whether the starting population was total, naïve, or memory T lymphocytes (FIG. 12). […]

[3] = tested on: 10 CD30+ T lymphocyte clones; assay: Summary of efficacies of cAC10 ADCs on proliferation of CD30+ T lymphocyte clones; format: cell-based, human; settings: FIG. 23 summary
From the text: The following trend was observed. […] These clones have been expanded through multiple rounds of T cell receptor and cytokine stimulation, similar to chronically stimulated effector T cells involved in inflammatory and autoimmune responses.

CD30 (human) = CD30 (human) (UniProt P28908); assay: cell-based or functional assay
Sequence of CD30 (human) (P28908 19-595): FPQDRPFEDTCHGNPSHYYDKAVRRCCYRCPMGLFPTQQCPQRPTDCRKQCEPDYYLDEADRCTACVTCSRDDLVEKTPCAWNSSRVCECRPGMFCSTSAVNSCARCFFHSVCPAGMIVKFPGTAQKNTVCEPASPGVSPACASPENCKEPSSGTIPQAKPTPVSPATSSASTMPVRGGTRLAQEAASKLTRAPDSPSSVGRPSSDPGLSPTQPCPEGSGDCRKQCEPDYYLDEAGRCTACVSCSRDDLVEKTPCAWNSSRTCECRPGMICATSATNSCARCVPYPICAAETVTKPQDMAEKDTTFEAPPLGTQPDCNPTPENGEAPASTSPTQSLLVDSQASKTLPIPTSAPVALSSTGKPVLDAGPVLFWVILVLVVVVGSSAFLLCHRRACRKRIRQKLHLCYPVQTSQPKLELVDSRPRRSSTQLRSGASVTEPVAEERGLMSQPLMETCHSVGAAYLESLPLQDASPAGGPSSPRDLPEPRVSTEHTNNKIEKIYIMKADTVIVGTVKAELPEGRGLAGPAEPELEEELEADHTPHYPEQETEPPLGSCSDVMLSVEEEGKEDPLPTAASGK

[4] = tested on: T lymphocyte clones 40E10 and 40H7; assay: Apoptosis induction in T cell clones by Annexin V binding and permeability to PI; format: cell-based, human; settings: 1 μg/ml of ADC, 4S-hour incubation
Experimental: FIG. 21. […] After 48 hr of incubation, Annexin V binding and permeability of PI were used to assess the extent of apoptosis induction.

CD3 (human) = assay: cell-based or functional assay
Jurkat T cells [5] = assay: Jurkat T cell proliferation, 3H-TdR incorporation, anti-CD30 mAbs with or without secondary cross-linking Ab; format: cell-based, human; settings: for inhibition of Jurkat T cell proliferation by immobilized mAb: mAb immobilized onto TC wells, data not shown; for inhibition of thymidine incorporation in Jurkat cells: secondary cross-linking antibody used
Experimental: FIG. 2. […] Proliferation was assessed by a pulse of tritiated thymidine (^3H-TdR) during the last 4 hours of a 72 hour incubation.
FIG. 3. […] Proliferation was assessed by a pulse of ^3H-TdR during the last 4 hours of a 48-hour incubation.
The effect of signaling through CD30 by anti-CD30 on the proliferation of Jurkat T cells was assessed by tritiated thymidine (^3H-TdR) incorporation assays. Jurkat cells were treated with soluble anti-CD30 in graded doses or anti-CD30 cross-linked by a secondary cross-linking antibody (Ab). […] Final ratios of 1:2.5, 1:5, and 1:10 between the primary mAbs and secondary cross-linking antibodies were used. Antibody cocktails were allowed to incubate at room temperature for 15 minutes. Serial dilutions of these antibody cocktails in culture medium were then prepared to achieve the desired final concentrations. One hundred ill of antibody cocktails were then mixed with 100 μl Jurkat cell suspension containing 5000 cells in 96-well tissue culture (TC) plates. Cells were incubated with the antibody cocktails for 44 hours before a 4-hour pulse with 1 μCi of ^3H-TdR. Cells were then harvested onto filters, and incorporated tritiated thymidine was measured by scintillation counting. Thymidine incorporation values obtained from the treated cells were then compared to the untreated control cultures.

Jurkat T cells [6] = assay: Cell cycle disposition, DNA synthesis and DNA fragmentation (apoptosis) by PI and anti-BrdU staining; format: cell-based, human; settings: for DNA fragmentation in Jurkat cells: mAb cross-linked by goat anti-mouse IgG Fc, after 24 and 48 hours
Experimental: The relationship between cell cycle status and DNA replication in Jurkat cells treated with cross-linked anti-CD30 in Abs was further investigated. […] The antibody cocktails were allowed to incubate at room temperature for 15 minutes. Serial 1:10 dilutions of these antibody cocktails in culture medium were then prepared. One ml of antibody cocktails was then mixed with 1 ml of Jurkat cell suspension containing 0.25×10^6 cells in 12-well TC plates.
After 24 or 48 hours of incubation, cells were harvested by centrifugation and resuspended in 2 ml of fresh medium equilibrated at 37° C. Bromodeoxyuridine (BrdU) (Sigma, St. Louis, Mo.) was used to label cells that were actively synthesizing DNA. Twenty μl of 1 mM BrdU dissolved in water were added to the cell suspension, and the incubation continued at 37° C. for 15 minutes. Cells were then spun down, washed once with PBS, and resuspended in 0.5 ml of ice-cold PBS. One ml of 100% ethanol at −20° C. was added drop-wise to the cell suspension for cell fixation. After fixation at 4 C for 30 minutes, fixed cells were spun down. The cell pellets were resuspended in 1 ml of 2 M HCl with 0.5% Triton X-100 (Sigma) and incubated for 30 minutes at room temperature before cells were spun down. One ml of 0.1 M Na2B4O7 at pH 8.5 was used to resuspend the cell pellets and to neutralize the acid for 10 minutes at room temperature. Cells were then pelleted by centrifugation and washed once with PBS containing 0.5% Tween 20 (Sigma) and 1% BSA. […] Cells were then washed twice with PBS, 0.5% Tween 20, 1% BSA, and then resuspended in 0.5 ml of PBS containing 5 μg/ml of propidium iodide (PI) (Sigma) to quantify DNA contents in cells. […]
Jurkat T cells were treated with either anti-CD30 mAb alone, anti-CD3 mAb, alone, or a combination of anti-CD30 and anti-CD3 mAbs. […] Cell cycle distribution was determined by BrdU and PI staining as in FIG. 4.

Jurkat T cells [7] = assay: Apoptosis by Annexin V binding and permeability to PI; format: cell-based, human; settings: primary mAb 2 μg/ml, 10-fold excess GAM
Experimental: FIG. 7. […] Anti-CD30 and anti-CD3 mAbs were used at 2 μg/ml. GAM secondary Ab was used in 10-fold excess to cross-link the primary mAbs. Binding of FITC-conjugated Annexin V enabled the detection of cells undergoing apoptosis. Membrane permeability to PI was used to detect dead cells that had lost membrane integrity. In the figure, Annexin V^−/PI^− events represent live cells (lower left quadrant), Annexin V^+/PI^− events represent apoptotic cells (lower right quadrant), and Annexin V^+/PI^+ events represent dead cells (upper right quadrant). Numbers outside of the density plots denote the percentage of cells present in each of the quadrants.
Primary mAbs were used at a final concentration of 2 μg/ml. A 10-fold excess of GA-M antibody was used to cross-link the primary antibodies. After an incubation of 15 minutes at room temperature, antibody cocktails were added to Jurkat cells. At the times designated in FIG. 7, percentages of apoptotic and dead cells in the cultures were determined by Annexin V binding and permeability to PI using the Annexin V-FITC Apoptosis Detection Kit I (BD PharMingen, San Diego, Calif.) according to the manufacturer's instruction. […]

Molecule: cAC10-vcMMAE: chimeric AC10 anti-CD30 antibody conjugated to MMAE via valine-citrulline linker
IC50 (Jurkat T cells [1]): approximately 0.1 μg/ml
concentrations that significantly inhibited DNA synthesis (Jurkat T cells [1]): higher than 0.001 μg/ml
sensitivity of naïve T lymphocytes to the ADC [2]: relatively refractory; also recorded: most refractory
sensitivity of T lymphocyte clones compared to memory T lymphocytes [3]: eight of the 10 T lymphocyte clones were found to be more sensitive

Jurkat T cell DNA synthesis (3H-TdR), 96 h exposure; concentration needed for growth inhibition (control ADC) (CD30 (human)): > 0.1 µg/mL
proliferation of activated Th2 clones 40E10 and 40H7 (3H-TdR); concentration needed for inhibition (control ADC) (CD30 (human)): > 2 µg/mL
Molecule: non-binding control IgG (cIgG)-vcMMAE (antibody)

Molecule: cAC10-fkMMAE: chimeric AC10 anti-CD30 antibody conjugated to MMAE via phenylalanine-lysine linker
cells either apoptotic or dead [4]: 44-48%

concentration giving the best synergy with AC10 for apoptosis in Jurkat T cells (CD3 (human)): 0.2 µg/mL
Molecule: anti-CD3 mAb OKT3 (antibody)

Molecule: cAC10: chimeric AC10 (cAC10) anti-CD30 mAb
concentration with growth inhibitory effect on Jurkat cells (Jurkat T cells [5]; soluble, unconjugated (FIG. 2)): higher than 1 μg/ml
concentrations at which Jurkat cell proliferation was not inhibited (Jurkat T cells [5]; without secondary cross-linking): below 1 μg/ml

Molecule: cAC10-vcAEFP: chimeric AC10 anti-CD30 antibody conjugated to AEFP via valine-citrulline linker
sensitivity of naïve T lymphocytes to the ADC [2]: less sensitive; also recorded: most refractory

Molecule: AC10: murine anti-CD30 mAb; variable regions SEQ ID NO:2 and 10
inhibition of Jurkat T cell proliferation by immobilized mAb (Jurkat T cells [5]): active in inhibiting Jurkat T cell proliferation
inhibition of thymidine incorporation in Jurkat cells (Jurkat T cells [5]): inhibited thymidine incorporation in Jurkat cell dose-dependently
DNA fragmentation in Jurkat cells (Jurkat T cells [6]): detectable
apoptosis induction in Jurkat T cells (BrdU and PI staining) (Jurkat T cells [6]; single mAb cross-linked by goat anti-mouse IgG Fc, compared to medium control): induced apoptosis
earliest time of detectable apoptosis after incubation (Jurkat T cells [7]): 4 h

percent of cells apoptotic or dead (Annexin V / PI), clones 40E10 and 40H7, 48 h with 1 µg/ml ADC (control for cAC10-fkMMAE) (CD30 (human)): 13% and 31%
proliferation of activated Th2 clones 40E10 and 40H7 (3H-TdR); concentration needed for inhibition (control ADC) (CD30 (human)): > 0.1 µg/mL
Molecule: cIgG-fkMMAE (antibody)

B1: HeFi-1: murine anti-CD30 mAb; variable regions SEQ ID NO:18 and 26 (antibody, listed as Mus musculus, V domains shown)
VH: EVKLVESGGGLVQPGGSLRLSCATSGFTFSDYYMNWVRQPPGKALEWLGFIRNKANGYTTEFSASVMGRFTISRDDSQSILYLQMNTLRAEDSATYYCARDPPYGNPHYYAMDYWGQGTSVTVSS
VL: DIVLTQSPASLAVSLGQRATISCRASKSVSASGYNYMHWYQQKAGQPPKLLIHLASNLESGVPARFSGSGSGTDFTLNIHPVEEEDASTYYCQHSGELPFTFGSGTKLEIK
inhibition of Jurkat T cell proliferation by immobilized mAb (Jurkat T cells [5]): active in inhibiting Jurkat T cell proliferation
inhibition of thymidine incorporation in Jurkat cells (Jurkat T cells [5]): inhibited thymidine incorporation in Jurkat cell dose-dependently
DNA fragmentation in Jurkat cells (Jurkat T cells [6]): detectable
earliest time of detectable apoptosis after incubation (Jurkat T cells [7]): 4 h

Source: patent publication US20050123536A1, “Treatment of immunological disorders using anti-dc30 antibodies” (priority 2001, published 2005)
